According to patent publication US10662193B2, “Carbazole and carboline compounds for use in the diagnosis, treatment, alleviation or prevention of disorders associated with amyloid or amyloid-like proteins” (AC IMMUNE SA, priority 2014, dated 2020):

Molecular target: Tau enriched paired helical filaments (PHF) from human Alzheimer's disease (AD) brains (Homo sapiens, UniProt P10636)
Assay: Assay 3: backscattering interferometry, dissociation constants (Kd)
Assay type: binding
Details: PHF batch 6 (pooled frontal cortex, 25 AD patients); read-out: [Kd] on PHF batch 6
Text: Assay 3 (Backscattering Interferometry):
Determination of Dissociation Constants (Kd) of Compounds of this Invention
Enrichment of Paired Helical Filaments (PHF's) from Human Alzheimer's Disease Brains
For backscattering interferometry, Tau enriched paired helical filaments (PHF) from human Alzheimer's disease (AD) brains were used as a target. Due to the limited availability of tissues, to determine dissociation constants (Kd) of compounds of this invention to the target, two different batches of enriched PHF were used. These batches are identified as batch 6 and 7 and were prepared as follows.
PHF batch number 6 was prepared starting from 25 g frontal cortical tissue from post-mortem brains of 25 Alzheimer's disease (AD) patients which were obtained from the London Tissue Bank. The mean age at death for the AD patients was 76 years (48% females). Brain samples were characterized for Braak disease stage (Braak and Braak, 1991), with most donors displaying a stage VI. The postmortem interval between death and brain dissection was between 6 and 65 h. Human brain homogenates were prepared by SB Drug Discovery (Glasgow, Scotland, UK) from the post-mortem cortical tissue of the 25 patients). Each tissue (1 g) was homogenized with a Dounce glass homogenizer in 1.5 mL 100 mM 2-(N-morpholino) ethane-sulfonic acid (MES) pH 6.8, 0.75 M NaCl, 1 mM EGTA, 0.5 mM MgSO4, 2 mM DTT containing protease inhibitors (Complete; Roche 11697498001). For each sample, two aliquots containing 0.5 g brain homogenates in 0.75 mL were shipped to AC Immune SA on dry ice and stored at −80° C. For the enrichment of PHF, 1 aliquot per donor corresponding to total 12.5 g of brain tissue were thawed on ice and then incubated at 4° C. for 20 min to depolymerize any residual microtubules. All samples were then pooled and transferred to three polycarbonate centrifuge bottles (16×76 mm; Beckman 355603).
PHF batch number 7 was prepared starting from 32 g of parietal cortex tissue from post-mortem brain of one Alzheimer's disease (AD) patient was obtained from an external provider (Tissue Solution). The patient was a person who died for end stage AD. The brain sample was collected 5 h post-mortem and characterized for Braak disease stage (Braak and Braak, 1991) as stage VI. The method used for the PHF enrichment was modified from published procedures (Jicha et al., 1997; Rostagno and Ghiso, 2009). Around 16 g of the AD human brain was thawed on ice and homogenized with 50 ml of homogenization buffer [0.75 M NaCl in RAB buffer (100 mM 2-(N-morpholino) ethanesulfonic acid (MES), 1 mM EGTA, 0.5 mM MgSO4, 2 mM DTT, pH 6.8) supplemented with protease inhibitors (Complete; Roche 11697498001)] in a glass Dounce homogenizer. The homogenate was then incubated at 4° C. for 20 min to let depolymerize any residual microtubules, before being transferred into polycarbonate centrifuge bottles (16×76 mm; Beckman 355603). For both purifications, brain homogenates were then centrifuged at 11,000 g (12,700 RPM) in an ultracentrifuge (Beckman, XL100K) for 20 min at 4° C. using the pre-cooled 70.1 rotor (Beckman, 342184). Pellets were kept on ice. Supernatants were pooled into polycarbonate bottles and centrifuged again at 100,000 g (38,000 RPM) for 1 h at 4° C. in the 70.1 Ti rotor to isolate PHF-rich pellets, whereas soluble Tau remained in the supernatants. The pellets from the first and second centrifugations were resuspended in 120 mL of extraction buffer [10 mM Tris-HCl pH 7.4, 10% sucrose, 0.85 M NaCl, 1% protease inhibitor (Calbiochem 539131), 1 mM EGTA, 1% phosphatase inhibitor (Sigma P5726 and P0044)]. The solution was then transferred into polycarbonate centrifuge bottles (16×76 mm; Beckman 355603) and centrifuged at 15,000 g (14,800 RPM) in an ultracentrifuge (Beckman, XL100K) for 20 min at 4° C. using the 70.1 Ti rotor. […]

Chain of Tau enriched paired helical filaments (PHF) from human Alzheimer's disease (AD) brains (P10636 623-708 limits assumed): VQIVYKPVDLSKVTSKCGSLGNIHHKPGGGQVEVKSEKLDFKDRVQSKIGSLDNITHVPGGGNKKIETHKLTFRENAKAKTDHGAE

Kd [nM] | Compound
33 ± 5 | Cn1c2ccncc2c2ccc(Nc3ccc(F)c(F)c3)nc21 [Example 2]
19 ± 3 | Cn1c2ccncc2c2ccc(Nc3cccc(OCCF)c3)nc21 [Example 8]
